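Tested at 5 concentrations; 48 h exposure; 96-well plates; endpoints linearly interpolated, else capped at highest concentration. GI50 marks 50% less growth.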 Activity calls are given as the source filed them. No stated cut-off is given here; in the data, active = GI50 up to about 1.1 µM and inactive = higher.
Key:
Assay in all cases: growth of human tumour cells (NCI), 48 h
[1] = tested on: HT-29
[2] = tested on: SNB-19
[3] = tested on: LOX IMVI
[4] = tested on: SNB-75
[5] = tested on: TK-10
[6] = tested on: SK-MEL-5
[7] = tested on: A498
[8] = tested on: RPMI-8226
[9] = tested on: T47D
[10] = tested on: UACC-257
[11] = tested on: HCT-116
[12] = tested on: RXF 393
[13] = tested on: SR
[14] = tested on: M14
[15] = tested on: PC-3
[16] = tested on: SK-OV-3
[17] = tested on: NCI-H226
[18] = tested on: Hs-578T
[19] = tested on: NCI/ADR-RES
[20] = tested on: DU-145
[21] = tested on: HOP-92
[22] = tested on: COLO 205
[23] = tested on: BT-549
[24] = tested on: SN12C
[25] = tested on: MCF7
[26] = tested on: SF-539
[27] = tested on: U-251
[28] = tested on: SK-MEL-2
[29] = tested on: SK-MEL-28
[30] = tested on: MOLT-4
[31] = tested on: CCRF-CEM
[32] = tested on: EKVX
[33] = tested on: UACC-62
[34] = tested on: Malme-3M
[35] = tested on: 786-0
[36] = tested on: MDA-MB-231
[37] = tested on: OVCAR-3
[38] = tested on: CAKI-1
[39] = tested on: IGROV-1
[40] = tested on: SF-295
[41] = tested on: ACHN
[42] = tested on: NCI-H23
[43] = tested on: HOP-62
[44] = tested on: OVCAR-4
[45] = tested on: MDA-N
[46] = tested on: OVCAR-8
[47] = tested on: HCT-15
[48] = tested on: MDA-MB-435
[49] = tested on: OVCAR-5
[50] = tested on: UO-31
[51] = tested on: A549
[52] = tested on: HL-60
[53] = tested on: SF-268
[54] = tested on: K562
[55] = tested on: NCI-H460
[56] = tested on: NCI-H522
[57] = tested on: KM12
[58] = tested on: SW-620

Measured: GI50

CC1(C)CC(C2=NCCO2)CC(C)(C)N1
inactive: [1] > 100 µM | [2] > 100 µM | [3] > 100 µM | [4] > 100 µM | [5] > 100 µM | [6] > 100 µM | [7] > 100 µM | [8] > 100 µM | [9] > 100 µM | [10] > 100 µM | [11] > 100 µM | [12] > 100 µM | [13] > 100 µM | [14] > 100 µM | [15] > 100 µM | [16] > 100 µM | [17] > 100 µM | [18] > 100 µM | [19] > 100 µM | [20] > 100 µM | [21] > 100 µM | [22] > 100 µM | [23] > 100 µM | [24] > 100 µM | [25] 27.7 µM | [26] > 100 µM | [27] > 100 µM | [28] > 100 µM | [29] > 100 µM | [30] > 100 µM | [31] > 100 µM | [32] > 100 µM | [33] > 100 µM | [34] > 100 µM | [35] > 100 µM | [36] > 100 µM | [37] > 100 µM | [38] > 100 µM | [39] > 100 µM | [40] > 100 µM | [41] > 100 µM | [42] > 100 µM | [43] > 100 µM | [44] > 100 µM | [45] > 100 µM | [46] > 100 µM | [48] > 100 µM | [49] > 100 µM | [50] > 100 µM | [51] > 100 µM | [52] > 100 µM | [53] > 100 µM | [54] > 100 µM
> 100 µM: [47]

Cc1cc(C)c2c(n1)S(=O)(=O)N(CCCN1CCN(c3cccc(C(F)(F)F)c3)CC1)C(C(=O)c1ccc(Cl)cc1)=C2O
1.85 µM: [47]
inactive: [1] 4.03 µM | [2] 2.2 µM | [55] 1.79 µM | [4] 2.81 µM | [5] 3.01 µM | [6] 2.22 µM | [7] 4.52 µM | [9] 3.98 µM | [10] 2.31 µM | [11] 2.81 µM | [12] 4.34 µM | [14] 2.65 µM | [15] 2.88 µM | [16] 5.81 µM | [17] 2.45 µM | [18] 5.55 µM | [19] 2.12 µM | [20] 4.67 µM | [21] 2.5 µM | [22] 1.84 µM | [23] 6.1 µM | [24] 2.02 µM | [25] 3.26 µM | [26] 3.84 µM | [27] 2.65 µM | [28] 3.91 µM | [29] 5.21 µM | [31] 8.15 µM | [32] 3.03 µM | [33] 4.74 µM | [34] 3.27 µM | [35] 2.47 µM | [36] 4.4 µM | [56] 2.7 µM | [37] 3.57 µM | [39] 3.26 µM | [40] 3.29 µM | [41] 3.48 µM | [42] 2.47 µM | [43] 5.81 µM | [44] 3.06 µM | [45] 3.15 µM | [46] 3.83 µM | [57] 3.58 µM | [48] 3.18 µM | [58] 3.69 µM | [49] 4.71 µM | [50] 1.33 µM | [51] 2.74 µM | [52] 1.87 µM | [53] 3.69 µM | [54] 2.2 µM
active: [3] 0.515 µM | [13] 0.507 µM | [30] 0.418 µM | [38] 1.11 µM

Reference: ChEMBL document CHEMBL1201862, “PubChem BioAssay data set” (2004)
